Literature values, collected in patent publication US7300923B2, “Partial and full agonists of A1 adenosine receptors” (CV Therapeutics, Inc., priority 2004, dated 2007).
One block for each molecule: values may come before it.

Key:
[1] = target: T1, A1-adenosine receptor (Homo sapiens, UniProt P30542)
T1 sequence (P30542 1-326): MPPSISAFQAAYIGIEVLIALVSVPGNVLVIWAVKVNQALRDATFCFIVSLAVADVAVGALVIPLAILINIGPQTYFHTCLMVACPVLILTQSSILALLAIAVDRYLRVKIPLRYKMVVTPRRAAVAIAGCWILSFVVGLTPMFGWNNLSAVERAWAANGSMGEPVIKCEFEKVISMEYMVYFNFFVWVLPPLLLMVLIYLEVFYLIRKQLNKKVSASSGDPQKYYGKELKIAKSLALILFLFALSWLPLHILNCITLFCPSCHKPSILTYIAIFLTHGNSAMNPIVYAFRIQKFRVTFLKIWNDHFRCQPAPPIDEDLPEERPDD

[2] = test system: seizures induced by DMCM; details: seizures induced by the inverse benzodiazepine agonist DMCM

Compound: OC1CCCC1Nc1ncnc2c1ncn2[C@@H]1O[C@H](CSc2ccccc2F)[C@@H](O)[C@H]1O (mixture of isomers) [(4S,5S,2R,3R)-5-[(2-fluorophenylthio)methyl]-2-{6-[(2-hydroxy-cyclopentyl)amino]-purin-9-yl}oxolane-3,4-diol]
- A1-adenosine receptor agonist profile [1]: highly selective partial A1-adenosine receptor agonist

- half-life: less than 10 sec
Compound: Nc1ncnc2c1ncn2[C@@H]1O[C@H](CO)[C@@H](O)[C@H]1O [adenosine, Adenosine]

Compound: Cc1ccccc1CNc1ncnc2c1ncn2[C@@H]1O[C@H](CO)[C@@H](O)[C@H]1O [metrifudil]
- anticonvulsant activity [2]: potent anticonvulsant
